Measurements as given in patent publication US11802110B2, “2-amino-N-(arylsulfinyl)-acetamide compounds as inhibitors of bacterial aminoacyl-tRNA synthetase” (priority 2016, dated 2023).
In brackets after ≈: the same amount, converted by molar mass. Several values for one entry are separate records, joined by “and”; a condition that tells them apart may be missing. Equal values may be shown once. Read-outs that look alike come from different tables or passages of the source.

Key:
[1] = system: wild type E. Coli strain BW25113; test: Study 3 - Antibacterial activity (EC50), dilution susceptibility test M07-A9; assay type: cell-based, Escherichia coli; conditions: for EC50: Escherichia coli
Protocol: The antibacterial activity of the separated diastereomers (V-i) and (V-ii) was determined against wild type E. Coli strain BW25113.
The method described in “Methods for Dilution Antimicrobial Susceptibility Tests for Bacteria that Grow Aerobically; Approved Standard—Ninth Edition” (M07-A9; Vol. 32, No. 2) was used.

Escherichia Coli LeuRS = Escherichia Coli LeuRS (Escherichia coli (strain K12), UniProt P07813); test: Study 1 - Isothermal titration calorimetry (ITC), separated diastereomers; assay type: binding
Chain of Escherichia Coli LeuRS (P07813 whole entry): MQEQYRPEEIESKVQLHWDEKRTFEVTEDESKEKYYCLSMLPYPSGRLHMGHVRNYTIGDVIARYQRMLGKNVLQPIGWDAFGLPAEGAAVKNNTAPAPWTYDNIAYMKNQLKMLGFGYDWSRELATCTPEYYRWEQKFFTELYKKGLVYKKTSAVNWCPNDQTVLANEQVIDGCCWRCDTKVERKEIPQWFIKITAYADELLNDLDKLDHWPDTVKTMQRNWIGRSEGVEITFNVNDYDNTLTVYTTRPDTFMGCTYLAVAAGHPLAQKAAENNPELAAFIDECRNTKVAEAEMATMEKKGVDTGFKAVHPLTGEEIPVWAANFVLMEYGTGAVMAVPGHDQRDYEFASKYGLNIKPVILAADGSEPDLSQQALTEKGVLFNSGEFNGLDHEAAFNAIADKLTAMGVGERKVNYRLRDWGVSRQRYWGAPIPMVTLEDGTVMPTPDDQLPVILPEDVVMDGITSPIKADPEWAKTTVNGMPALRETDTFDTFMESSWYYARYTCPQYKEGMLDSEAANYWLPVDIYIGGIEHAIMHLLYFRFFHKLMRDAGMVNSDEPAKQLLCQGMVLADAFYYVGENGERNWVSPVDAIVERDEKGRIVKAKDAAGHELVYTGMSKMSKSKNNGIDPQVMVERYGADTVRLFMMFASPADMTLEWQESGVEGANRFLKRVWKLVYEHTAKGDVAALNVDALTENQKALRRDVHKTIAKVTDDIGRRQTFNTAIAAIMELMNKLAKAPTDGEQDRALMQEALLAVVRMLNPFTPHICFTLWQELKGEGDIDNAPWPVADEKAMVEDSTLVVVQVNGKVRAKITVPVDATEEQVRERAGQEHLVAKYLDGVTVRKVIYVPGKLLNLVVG
Protocol: The dissociation constants (KD) of the separated diastereomers (V-i) and (V-ii) for binding to Escherichia Coli LeuRS were determined by isothermal titration calorimetry (ITC).
(§1) Escherichia coli BL21(DE3) cells transformed with plasmid pQE-60 containing the open-reading frame sequence of one targeted aaRS (i.e., LeuRS) were induced with 1 mM IPTG (isopropyl β-D-1-thiogalactopyranoside) for 3 hours at 37° C. Bacterial cells were harvested and lysed with 20 mM HEPES (4-(2-hydroxyethyl)-1-piperazinylethane-sulfonic acid) (pH 7.5), 300 mM NaCl, 15 mM imidazole and 1 mM DTT (1,4-dithio-D-threitol). The pathogenic aaRS was first purified by nickel affinity standard chromatography. The eluted protein was concentrated and then further purified by gel filtration using 50 mM HEPES (pH 7.5), 150 mM NaCl buffer.
ITC studies were carried out using a Microcal ITC200 instrument (GE Healthcare). […] The titrations were performed at 25° C. with 10-30 μM E. Coli LeuRS in 50 mM HEPES, 150 mM NaCl, pH 7.5 buffer containing 1% DMSO (v/v). The protein solution in the 200 μL sample cell was titrated with the inhibitor solution (diluted to 100-300 μM in the same buffer as the protein) using 1-2 μL injections every 140 seconds. All titrations were repeated at least three times. To correct for heats of dilution and mixing, the final baseline consisting of small peaks of identical size at the end of each experiment was subtracted. The experimental data were fitted to a theoretical titration curve (one site model) using MicroCal Origin 7 software.

[2] = system: Pseudomonas aeruginosa ATCC 27853; test: Study 4 - MIC by broth micro-dilution (CLSI); assay type: cell-based; conditions: Pseudomonas aeruginosa, ATCC27853
Protocol: (§2) Minimum Inhibitory Concentrations (MICs) were determined by the broth micro-dilution method performed according to Clinical Laboratory Standards Institute guidelines. For testing, 5 mg/mL DMSO solutions were prepared by dissolving solids in DMSO. Standard antibiotics were prepared according to CLSI guidelines as 5 mg/mL stock solutions. Upon DMSO stock solutions preparation, the working solutions in MH media were prepared by adding 38.4 μL of stock solution to 1461.6 μL of MH media. Out of these working solutions 100 μL were transferred to wells in the third column of 96-well assay plates. Assay plates were previously filled with 50 μL of MH media in all wells except for the wells in the third column. Upon compounds and antibiotics addition, 50 μL was transferred from the third to the fourth column, then from the fourth to the fifth and so on.
(§3) MIC value was determined by visual inspection of bacterial growth within 96-well plates. The first column in which there was no visible growth of bacteria was determined as MIC value for compound or antibiotic tested in that particular row. ATCC strains were used as reference strains for which there is a determined value of MIC values for standard antibiotics. The assay is considered valid when MIC values for standard antibiotics are within CLSI designated range for ATCC strain tested.

[3] = system: Klebsiella pneumoniae ATCC 700603; test: Study 4 - MIC by broth micro-dilution (CLSI); assay type: cell-based; conditions: Klebsiella pneumoniae, ATCC700603
Protocol: as §2, §3

[4] = system: Haemophilus influenzae ATCC 49247; test: Study 4 - MIC by broth micro-dilution (CLSI); assay type: cell-based; conditions: Haemophilus influenzae, ATCC49247
Protocol: as §2, §3

[5] = system: Escherichia coli ATCC 25922; test: Study 4 - MIC by broth micro-dilution (CLSI); assay type: cell-based; conditions: Escherichia coli, ATCC25922
Protocol: as §2, §3

[6] = system: Enterobacter cloacae B1966 clinical isolate; test: Study 4 - MIC by broth micro-dilution (CLSI); assay type: cell-based; conditions: Enterobacter cloacae
Protocol: as §2, §3

[7] = system: Acinetobacter baumannii B1931 clinical isolate; test: Study 4 - MIC by broth micro-dilution (CLSI); assay type: cell-based; conditions: Acinetobacter baumannii
Protocol: as §2, §3

E. Coli LeuRS = E. Coli LeuRS (Escherichia coli (strain K12), UniProt P07813); test: Study 2 - Isothermal titration calorimetry (ITC); assay type: binding; conditions: 25° C., pH 7.5, mean ± SD
Chain of E. Coli LeuRS (P07813 whole entry): as above
Protocol: as §1
ITC studies were carried out using a Microcal ITC200 instrument (GE Healthcare). Protein concentration was determined by spectrophotometry by measuring the absorbance at 280 nm using a theoretical molar extinction coefficient of 169,140 M^−1cm^−1. Ligand stock solutions were prepared in DMSO at 62.5 mM concentration. The titrations were performed at 25° C. with 7.5-100 μM E. Coli LeuRS in 50 mM HEPES, 150 mM NaCl, pH 7.5 buffer containing 1% DMSO (v/v). The protein solution in the 280 μL sample cell was titrated with the inhibitor solution (diluted to 75-3000 μM in the same buffer as the protein) using 1-2 μL injections every 120-140 seconds. All titrations were repeated at least two times. To correct for heats of dilution and mixing, the final baseline consisting of small peaks of identical size at the end of each experiment was subtracted. The experimental data were fitted to a theoretical titration curve (one site model) using MicroCal Origin 7 SR4 software.
Note that Compounds R-4.1 and S-4.1 (in Table 15, below) correspond to Compounds V-i and V-ii (in Tables 13 and 14, above), respectively.

[8] = Human cell viability (cytotoxicity), ATP levels by CellTiter-Glo; assay type: cell-based; conditions: HepG2 cells (ATCC HB-8065), 24 hours incubation, read-out: IC50 (μg/mL), Cytotoxicity in HepG2 ATCC HB-8065 Cell Line
Protocol: Compounds were assessed for potential non-specific cytotoxic effects against a human hepatic cell line (HepG2 ATCC HB-8065). 96-well plates were seeded with HepG2 cells in concentration of 15,000 cells per well in 100 μL of MEM growth media completed with 1% NEAA and 1% sodium pyruvate. Border wells were filled with 100 μL of sterile PBS. Two days upon cells incubation, the compounds were added. Compound dilutions were prepared in 96-well V-bottom plate in pure DMSO. Growth media from 5 plates were aspirated and replaced with 98.7 μL of fresh growth media. 1.28 μL of compounds prepared in V-bottom plates were transferred with multichannel pipette into test plates (78.1× dilution). Final DMSO concentration was 1.28% per well. In control wells, 1.28 μL of DMSO was added in 98.7 μL of media. Compounds were tested in duplicates. Cells were incubated with compounds for 24 hours when cell viability was assessed by measuring ATP levels. ATP levels were measured by adding 50 μL of CellTiter-Glo reagent to each well and after 5 minutes of incubation luminescence was measured with SpectraMax i3. The potential effect of tested compounds on cell viability was determined by comparing the signal obtained in presence of different concentrations of the compounds with those obtained in the presence of DMSO only. The potential effects were then calculated and presented as IC50 values (μg/mL).

[9] = system: Escherichia coli ATCC 25922 TolC deficient mutant (E. coli EFFLUX del); test: microbe, parasite or virus in culture; assay type: cell-based; conditions: Escherichia coli, ATCC25922
Protocol: as §2, §3

[10] = ITC, 25° C., pH 7.5, single replicates 1-3
[11] = ITC, 25° C., pH 7.5, single replicates 1-3, read-out: K (binding constant) (converted)
[12] = read-out: KD (dissociation constant)
[13] = G = H. influenzae ATCC 49247, read-out: MIC

| SMILES | EC50 [1] [µg/mL] | K (binding constant) (Escherichia Coli LeuRS; [10]) | ΔH (Escherichia Coli LeuRS; [10]) | ΔS (Escherichia Coli LeuRS; [10]) | Kd (Escherichia Coli LeuRS; [11]) | Kd (Escherichia Coli LeuRS; [12]) [nM] | antibacterial activity (in words) [1] | binding to E. coli LeuRS (in words) (Escherichia Coli LeuRS; ITC) | MIC [2] [µg/mL] | MIC [3] [µg/mL] | MIC [4, 13] [µg/mL] | MIC [5] [µg/mL] | MIC [6] [µg/mL] | MIC [7] [µg/mL] | Kd (E. Coli LeuRS) [nM] | ΔG (E. Coli LeuRS) [kcal/mol] | ΔH (E. Coli LeuRS) [kcal/mol] | IC50 at 24 h [8] [µg/mL] | MIC [9] [µg/mL] | MIC [4] [µg/mL] |
| --- | --- | --- | --- | --- | --- | --- | --- | --- | --- | --- | --- | --- | --- | --- | --- | --- | --- | --- | --- | --- |
| CC(C)C[C@H](N)C(=O)N[S@@+]([O-])c1ccccc1 (single isomer, unassigned) [V-ii] | > 128 | 83500 M⁻¹ and 77000 M⁻¹ | -5.69 kcal/mol and -5.899 kcal/mol and -6.2 kcal/mol | +3.44 cal/mol/° C. and +2.28 cal/mol/° C. and +1.56 cal/mol/° C. | 15000 nM | 13000 | – | – | – | – | – | – | – | – | – | – | – | – | – | – |
| CC(C)C[C@H](N)C(=O)N[S@+]([O-])c1ccccc1 (single isomer, unassigned) [V-i] | 4 (≈ 15.7 µM) | 2.4e+08 M⁻¹ | – | −7.96 cal/mol/° C. and −12.5 cal/mol/° C. and −7.03 cal/mol/° C. | 6.49 nM and 3.14 nM | 4.6 | potent antibacterial agent | binds with high affinity | – | – | – | – | – | – | – | – | – | – | – | – |
| C=Cc1cccc([S+]([O-])NC(=O)C(N)CC(C)C)c1 (stereo not shown) [4.16] | – | – | – | – | – | – | – | – | > 64 | > 64 | 32 (≈ 114 µM) | 8 (≈ 28.5 µM) | 32 (≈ 114 µM) | 32 (≈ 114 µM) | 27.2 ± 8.44 | -10.34 ± 0.19 | -4.89 ± 0.08 | > 64 | 8 (≈ 28.5 µM) | – |
| CC(C)C[C@H](N)C(=O)N[S@@+]([O-])c1ccccc1 (single isomer, unassigned) [S-4.1] | – | – | – | – | – | – | – | – | > 64 | > 64 | > 64 | 64 (≈ 252 µM) | > 64 | > 64 | 9130 ± 2720 | -6.89 ± 0.16 | -2.33 ± 0.13 | > 64 | 64 (≈ 252 µM) | – |
| CNc1cccc([S+]([O-])NC(=O)C(N)CC(C)C)c1 (stereo not shown) [4.22] | – | – | – | – | – | – | – | – | > 64 | 64 (≈ 226 µM) | > 64 | 16 (≈ 56.5 µM) | 32 (≈ 113 µM) | 32 (≈ 113 µM) | 34.5 ± 0.76 | -10.17 ± 0.02 | -4.27 ± 0.19 | > 64 | 16 (≈ 56.5 µM) | – |
| CC(C)C[C@H](N)C(=O)N[S@+]([O-])c1ccccc1 (single isomer, unassigned) [R-4.1, 2,2,2-trifluoroacetate] | – | – | – | – | – | – | – | – | 32 (≈ 126 µM) | 8 (≈ 31.5 µM) | – | 2 (≈ 7.86 µM) | 4 (≈ 15.7 µM) | 8 (≈ 31.5 µM) | 3.86 ± 0.24 | -11.48 ± 0.04 | -11.92 ± 0.34 | > 64 | 2 (≈ 7.86 µM) | 16 (≈ 62.9 µM) |
| CC(C)CC(N)C(=O)N[S+]([O-])c1cccc(F)c1F (stereo not shown) [4.34] | – | – | – | – | – | – | – | – | 32 (≈ 110 µM) | 1 (≈ 3.44 µM) | 4 (≈ 13.8 µM) | 0.5 (≈ 1.72 µM) | 1 (≈ 3.44 µM) | 2 (≈ 6.89 µM) | 288 ± 42.9 | -8.93 ± 0.08 | -9.90 ± 0.40 | > 64 | 0.25 (≈ 0.861 µM) | – |
| COC(=O)c1cccc([S+]([O-])NC(=O)C(N)CC(C)C)c1 (stereo not shown) [4.21] | – | – | – | – | – | – | – | – | > 64 | > 64 | > 64 | 32 (≈ 102 µM) | > 64 | > 64 | 6.61 ± 0.83 | -11.16 ± 0.07 | -8.23 ± 0.43 | > 64 | 32 (≈ 102 µM) | – |
